Assay results taken from patent publication US20260200926A1, “TREM2 MODULATORS” (Muna Therapeutics ApS, priority 2022, published 2026).
Where two headings read alike, the source gives them in different places.

Molecular target: T1, Human TREM2 (Homo sapiens, UniProt Q9NZC2)
T1 construct: expressed in transfected cells
Test: Human TREM2 activity: cellular phosphorylation of Syk (AlphaLISA SureFire Ultra p-SYK) in HEK293/DAP12+TREM2 stable cell line
Type: cell-based
Details: for Emax: HEK293; for EC50: phospho-Syk AlphaLISA signal, HEK293/DAP12+TREM2 cells, concentration giving 50% of maximal response, read-out: EC50
Procedure, shortened: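 The read-out was p-Syk (Tyr525/526), measured by AlphaLISA in lysates of a stable HEK293/DAP12+TREM2 clone. Cells (10,000/well, plated the day before) received compound for 30 min at 37 °C. Dosing used 8 points in quadruplicate, top 100 μM with 1:6 dilution, 0.5% final DMSO.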

[1] = maximal response relative to reference agonist example 1B (remaining examples), read-out: Emax

T1 sequence (Q9NZC2 19-230): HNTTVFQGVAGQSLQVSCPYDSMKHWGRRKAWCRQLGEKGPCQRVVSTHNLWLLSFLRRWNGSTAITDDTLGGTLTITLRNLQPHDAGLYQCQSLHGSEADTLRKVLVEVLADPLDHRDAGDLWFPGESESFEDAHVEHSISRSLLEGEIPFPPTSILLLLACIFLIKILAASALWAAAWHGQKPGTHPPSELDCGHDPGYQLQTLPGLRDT
T1 sequence (O43914 22-113 partner): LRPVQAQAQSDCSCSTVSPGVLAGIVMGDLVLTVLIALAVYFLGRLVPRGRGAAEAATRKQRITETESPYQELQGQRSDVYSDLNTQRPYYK

In the case of `Cc1nc2c(-c3ccc(C(F)(F)F)cc3F)nc(N3C[C@H](c4cnn(C)c4)OC(C)(C)C3)cc2c(=O)n1C` (single isomer, unassigned) [Example 134B], the Emax [1] is reported as < 75% and the EC50 is reported as 100 to 1000 nM.
`Cc1cc([C@@H]2CN(c3cc4c(=O)n(C)c(C)nc4c(-c4ccc(Cl)cc4F)n3)CCO2)ccn1` (single isomer, unassigned) [Example 135A] was tested, and the Emax [1] was 75 to 110% and the EC50 was 1 to 10 nM.
Work on `Cc1cc([C@H]2CN(c3cc4c(=O)n(C)c(C)nc4c(-c4ccc(Cl)cc4F)n3)CCO2)ccn1` (single isomer, unassigned) [Example 135B] yielded an Emax [1] of 75 to 110% and an EC50 of 100 to 1000 nM.
`Cc1cc([C@@H]2CN(c3cc4c(=O)n(C)c(C)nc4c(-c4ccc(F)cc4F)n3)CCO2)ccn1` (single isomer, unassigned) [Example 136A] gave an Emax [1] of 75 to 110% and an EC50 of 1 to 10 nM.
In the case of `Cc1cc([C@H]2CN(c3cc4c(=O)n(C)c(C)nc4c(-c4ccc(F)cc4F)n3)CCO2)ccn1` (single isomer, unassigned) [Example 136B], the Emax [1] is reported as < 75% and the EC50 is reported as 100 to 1000 nM.
Compound `Cc1cc([C@@H]2CN(c3cc4c(=O)n(C)c(C)nc4c(-c4ccc(C(F)(F)F)cc4F)n3)CCO2)ccn1` (single isomer, unassigned) [Example 137A] has an Emax [1] of 75 to 110% and an EC50 of 1 to 10 nM.
Work on `Cc1cc([C@H]2CN(c3cc4c(=O)n(C)c(C)nc4c(-c4ccc(C(F)(F)F)cc4F)n3)CCO2)ccn1` (single isomer, unassigned) [Example 137B] yielded an Emax [1] of 75 to 110% and an EC50 of 100 to 1000 nM.
In the case of `Cc1cc([C@@H]2CN(c3cc4c(=O)n(C)c(C)nc4c(-c4ccc(C(F)(F)F)nc4)n3)CCO2)ccn1` (single isomer, unassigned) [Example 138A], the Emax [1] is reported as > 110% and the EC50 is reported as 10 to 100 nM.
With `Cc1cc([C@H]2CN(c3cc4c(=O)n(C)c(C)nc4c(-c4ccc(C(F)(F)F)nc4)n3)CCO2)ccn1` (single isomer, unassigned) [Example 138B] the Emax [1] was < 75% and the EC50 was 100 to 1000 nM.
`Cc1nc2c(-c3cc(F)c(F)cc3F)nc([C@@H]3CCO[C@H](c4cnn(C5CC5)c4)C3)cc2c(=O)n1C` (single isomer, unassigned) [Example 139A] gave an Emax [1] of 75 to 110% and an EC50 of 10 to 100 nM.
For `Cc1nc2c(-c3cc(F)c(F)cc3F)nc([C@H]3CCO[C@@H](c4cnn(C5CC5)c4)C3)cc2c(=O)n1C` (single isomer, unassigned) [Example 139B], the Emax [1] was < 75% and the EC50 was 100 to 1000 nM.
With `Cc1nc2c(-c3ccc(Cl)cc3F)nc([C@@H]3CCO[C@H](c4cnn(C5CC5)c4)C3)cc2c(=O)n1C` (single isomer, unassigned) [Example 140A] the Emax was < 75% and the EC50 was 100 to 1000 nM.
Compound `Cc1nc2c(-c3ccc(Cl)cc3F)nc([C@H]3CCO[C@@H](c4cnn(C5CC5)c4)C3)cc2c(=O)n1C` (single isomer, unassigned) [Example 140B] has an Emax of 75 to 110% and an EC50 of 10 to 100 nM.
Compound `Cc1cc([C@@H]2CN(c3cc4c(=O)n(C)c(C)nc4c(-c4cc(F)c(F)cc4F)n3)CCO2)ccn1` (single isomer, unassigned) [Example 141A] has an Emax [1] of 75 to 110% and an EC50 of 10 to 100 nM.
Compound `Cc1cc([C@H]2CN(c3cc4c(=O)n(C)c(C)nc4c(-c4cc(F)c(F)cc4F)n3)CCO2)ccn1` (single isomer, unassigned) [Example 141B] has an Emax [1] of 75 to 110% and an EC50 of 10 to 100 nM.
For `Cc1nc2c(-c3ccc(Cl)cc3F)cc(N3C[C@@H](c4cnn(C)c4)OC(C)(C)C3)nc2c(=O)n1C` (single isomer, unassigned) [Example 142A], the Emax [1] was < 75% and the EC50 was 100 to 1000 nM.
In the case of `Cc1nc2c(-c3ccc(Cl)cc3F)cc(N3C[C@H](c4cnn(C)c4)OC(C)(C)C3)nc2c(=O)n1C` (single isomer, unassigned) [Example 142B], the Emax [1] is reported as 75 to 110% and the EC50 is reported as 10 to 100 nM.
`Cc1nc2c(-c3ccc(C(F)(F)F)cc3F)nc(N3C[C@@H](c4cnn(C)c4)OC4(CCC4)C3)cc2c(=O)n1C` (single isomer, unassigned) [Example 143A] was tested, and the Emax [1] was 75 to 110% and the EC50 was 1 to 10 nM.
In the case of `Cc1nc2c(-c3ccc(C(F)(F)F)cc3F)nc(N3C[C@H](c4cnn(C)c4)OC4(CCC4)C3)cc2c(=O)n1C` (single isomer, unassigned) [Example 143B], the Emax [1] is reported as < 75% and the EC50 is reported as 100 to 1000 nM.
`Cc1nc2c(-c3ccc(Cl)cc3F)nc(N3C[C@@H](c4cnn(C)c4)OC4(CC4)C3)cc2c(=O)n1C` (single isomer, unassigned) [Example 144A] showed an Emax [1] of 75 to 110% and an EC50 of 1 to 10 nM.
In the case of `Cc1nc2c(-c3ccc(Cl)cc3F)nc(N3C[C@H](c4cnn(C)c4)OC4(CC4)C3)cc2c(=O)n1C` (single isomer, unassigned) [Example 144B], the Emax [1] is reported as < 75% and the EC50 is reported as 10 to 100 nM.
With `Cc1nc2c(-c3ccc(C(F)(F)F)cc3F)nc(N3C[C@@H](c4cnn(C)c4)OC4(CC4)C3)cc2c(=O)n1C` (single isomer, unassigned) [Example 145A] the Emax [1] was 75 to 110% and the EC50 was 1 to 10 nM.
`Cc1nc2c(-c3ccc(C(F)(F)F)cc3F)nc(N3C[C@H](c4cnn(C)c4)OC4(CC4)C3)cc2c(=O)n1C` (single isomer, unassigned) [Example 145B] was tested, and the Emax [1] was < 75% and the EC50 was 10 to 100 nM.
Compound `Cc1nc2c(-c3cc(F)c(F)cc3F)nc(N3C[C@@H](c4cnn(C)c4)OC4(CC4)C3)cc2c(=O)n1C` (single isomer, unassigned) [Example 146A] has an Emax [1] of 75 to 110% and an EC50 of 10 to 100 nM.
In the case of `Cc1nc2c(-c3cc(F)c(F)cc3F)nc(N3C[C@H](c4cnn(C)c4)OC4(CC4)C3)cc2c(=O)n1C` (single isomer, unassigned) [Example 146B], the Emax [1] is reported as < 75% and the EC50 is reported as > 1000 nM.
`Cc1nc2c(-c3ccc(Cl)cc3F)nc(N3C[C@@H](c4cnn(C)n4)OC(C)(C)C3)cc2c(=O)n1C` (single isomer, unassigned) [Example 147A] was tested, and the Emax [1] was < 75% and the EC50 was 10 to 100 nM.
`Cc1nc2c(-c3ccc(Cl)cc3F)nc(N3C[C@H](c4cnn(C)n4)OC(C)(C)C3)cc2c(=O)n1C` (single isomer, unassigned) [Example 147B] was tested, and the Emax [1] was 75 to 110% and the EC50 was 100 to 1000 nM.
With `Cc1nc2c(-c3ccc(Cl)cc3F)nc([C@@H]3C[C@@H]3c3cnn(C)c3)cc2c(=O)n1C` (single isomer, unassigned) [Example 148A] the Emax [1] was < 75% and the EC50 was > 1000 nM.
With `Cc1nc2c(-c3ccc(Cl)cc3F)nc([C@@H]3C[C@H]3c3cnn(C)c3)cc2c(=O)n1C` (single isomer, unassigned) [Example 148B] the Emax [1] was < 75% and the EC50 was > 1000 nM.
In the case of `Cc1nc2c(-c3ccc(Cl)cc3F)nc(N3C[C@@H](c4cnn(C)c4)OC(F)(F)C3)nc2c(=O)n1C` (single isomer, unassigned) [Example 149A], the Emax [1] is reported as 75 to 110% and the EC50 is reported as < 1 nM.
`Cc1nc2c(-c3ccc(Cl)cc3F)nc(N3C[C@H](c4cnn(C)c4)OC(F)(F)C3)nc2c(=O)n1C` (single isomer, unassigned) [Example 149B] was tested, and the Emax [1] was < 75% and the EC50 was 10 to 100 nM.
Work on `Cc1nc2c(-c3cc(F)c(F)cc3F)nc(N3C[C@@H](c4cnn(C)c4)OC(C)(C)C3)cc2c(=O)n1C` (single isomer, unassigned) [Example 150A] yielded an Emax [1] of 75 to 110% and an EC50 of 10 to 100 nM.
For `Cc1nc2c(-c3cc(F)c(F)cc3F)nc(N3C[C@H](c4cnn(C)c4)OC(C)(C)C3)cc2c(=O)n1C` (single isomer, unassigned) [Example 150B], the Emax [1] was < 75% and the EC50 was > 1000 nM.
Compound `Cc1nc2c(-c3ccc(Cl)cc3F)nc(N3C[C@@H](c4cnn(C)c4)OC4(CCC4)C3)cc2c(=O)n1C` (single isomer, unassigned) [Example 151A] has an Emax [1] of 75 to 110% and an EC50 of 1 to 10 nM.
In the case of `Cc1nc2c(-c3ccc(Cl)cc3F)nc(N3C[C@H](c4cnn(C)c4)OC4(CCC4)C3)cc2c(=O)n1C` (single isomer, unassigned) [Example 151B], the Emax [1] is reported as < 75% and the EC50 is reported as 100 to 1000 nM.
`Cc1nc2c(-c3cc(F)c(F)cc3F)nc(N3C[C@@H](c4cnn(C)c4)OC4(CCC4)C3)cc2c(=O)n1C` (single isomer, unassigned) [Example 152A] showed an Emax [1] of 75 to 110% and an EC50 of 100 to 1000 nM.
For `Cc1nc2c(-c3cc(F)c(F)cc3F)nc(N3C[C@H](c4cnn(C)c4)OC4(CCC4)C3)cc2c(=O)n1C` (single isomer, unassigned) [Example 152B], the Emax [1] was < 75% and the EC50 was > 1000 nM.
With `Cc1nc2c(-c3ccc(C(F)(F)F)cc3F)nc([C@@H]3CCO[C@H](c4cnn(C5CC5)c4)C3)cc2c(=O)n1C` (single isomer, unassigned) [Example 153A] the Emax [1] was > 110% and the EC50 was 1 to 10 nM.
For `Cc1nc2c(-c3ccc(C(F)(F)F)cc3F)nc([C@H]3CCO[C@@H](c4cnn(C5CC5)c4)C3)cc2c(=O)n1C` (single isomer, unassigned) [Example 153B], the Emax [1] was < 75% and the EC50 was 100 to 1000 nM.
For `Cc1cc([C@@H]2CN(c3nc(-c4ccc(F)cc4F)c4nc(C(F)(F)F)n(C)c(=O)c4n3)CCO2)ccn1` (single isomer, unassigned) [Example 154A], the Emax [1] was 75 to 110% and the EC50 was < 1 nM.
With `Cc1cc([C@H]2CN(c3nc(-c4ccc(F)cc4F)c4nc(C(F)(F)F)n(C)c(=O)c4n3)CCO2)ccn1` (single isomer, unassigned) [Example 154B] the Emax [1] was 75 to 110% and the EC50 was 10 to 100 nM.
For `Cc1cc([C@@H]2CN(c3nc(-c4cc(F)c(F)cc4F)c4nc(C(F)(F)F)n(C)c(=O)c4n3)CCO2)ccn1` (single isomer, unassigned) [Example 155A], the Emax [1] was 75 to 110% and the EC50 was < 1 nM.
In the case of `Cc1cc([C@H]2CN(c3nc(-c4cc(F)c(F)cc4F)c4nc(C(F)(F)F)n(C)c(=O)c4n3)CCO2)ccn1` (single isomer, unassigned) [Example 155B], the Emax [1] is reported as 75 to 110% and the EC50 is reported as 10 to 100 nM.
For `Cc1nc2c(-c3ccc(F)cc3F)nc(N3C[C@@H](c4cnn(C)c4)OC(F)(F)C3)nc2c(=O)n1C` (single isomer, unassigned) [Example 156A], the Emax [1] was 75 to 110% and the EC50 was 1 to 10 nM.
Compound `Cc1nc2c(-c3ccc(F)cc3F)nc(N3C[C@H](c4cnn(C)c4)OC(F)(F)C3)nc2c(=O)n1C` (single isomer, unassigned) [Example 156B] has an Emax [1] of 75 to 110% and an EC50 of 10 to 100 nM.
